Assays:
[1] = tested on: MCF-7 cells; experiment: Proliferation of human breast cancer cells MCF-7 (estrogenic and antiestrogenic activity); type: cell-based; conditions: ethanol test = 100
Experimental: The comparative study of the proliferation of the human breast cancer cells MCF-7 under the action of estradiol, SECO, and SECO-containing extracts was carried out according to a known method (H. Adlercreutz, Y. Mousavi, “Enterolactone and estradiol inhibit each other's proliferative effect on MCF-7 breast cancer cells in culture,” J. Steroid. Biochem. Mol. Biol. 41: 615-619 (1992)). To estimate the estrogenic activity of the preparations containing SECO, 1 M solutions of the latter in ethanol (the concentration is indicated for SECO present in the solution) were added to the cell culture with achievement of the final 1 μM concentration of SECO. In each experiment on proliferation, 17β-estradiol was used as a positive standard for the estimation of the estrogenic activity and was also added as an ethanolic solution to achieve the final 1 nM concentration. To estimate the antiestrogenic activity, solutions of 17β-estradiol and the tested SECO preparations, among which there were the preparations obtained under the conditions of Examples 6, 7, and 14, were simultaneously added to the cell culture. The cell proliferation was estimated by counting the number of cells with the Coulter counter, and the results obtained are summarized in Table 2. In the test experiment (see entry 1 in Table 2), ethanol without lignan was added. Five measurements were carried out under each type of conditions.

[2] = tested on: Saccharomyces cerevisiae BKM Y-1173; experiment: Survival rate of S. cerevisiae cells under the action of hydrogen peroxide (antioxidant activity); type: cell-based; conditions: antioxidant 5 mg/ml (for DHQ + SECO, total concentration of both), 1 h incubation
Experimental: Antioxidant activity of DHQ, SECO, and their complexes obtained under the conditions of Examples 6 and 7 was studied by a known method (D. J. Jamieson, “Saccharomyces cerevisiae has distinct adaptive responses to both hydrogen peroxide and menadione” J. Bacteriol. 174: 6678-6681 (1992)) on yeast Saccharomyces cerevisiae BKM Y-1173. The yeasts were grown to the mid-logarithmic growth stage on […] medium containing 2% glucose, the yeast extract, and mineral salts. The yeast cells were separated from the medium by centrifugation, two times washed with water, and incubated with hydrogen peroxide and antioxidants in an aqueous suspension (OD600 0.1-0.15) for 1 h with periodic shaking. Then the corresponding dilutions were made, the yeasts were seeded on the agarized glucose-peptone medium and cultivated for […] at 30° C., and the number of grown colonies and the survival rate of S. cerevisiae cells were counted (Table 1).

| SMILES | Proliferation of cells MCF-7, % ([1]; positive standard alone, final 1 nM concentration) [%] | Survival rate, % of test ([2]; 5 mM H2O2) | Survival rate, % of test ([2]; 10 mM H2O2) | Survival rate, % of test ([2]; Test (no H2O2)) | Proliferation of cells MCF-7, % ([1]; antiestrogenic activity, added simultaneously with 17β-estradiol (1 nM), SECO 1 μM) [%] | Proliferation of cells MCF-7, % ([1]; estrogenic activity, preparation alone, final 1 μM concentration of SECO) [%] |
| --- | --- | --- | --- | --- | --- | --- |
| C[C@]12CC[C@@H]3c4ccc(O)cc4CC[C@H]3[C@@H]1CC[C@@H]2O [17β-estradiol, reference compound] | 140 ± 15 |  |  |  |  |  |
| O=C1c2c(O)cc(O)cc2O[C@H](c2ccc(O)c(O)c2)[C@H]1O [DHQ (Example 13), Dihydroquercetin] |  | 35 ± 5 % of test | 9 ± 2 % of test | 100 % of test |  |  |
| COc1cc(C[C@@H](CO)[C@H](CO)Cc2ccc(O)c(OC)c2)ccc1O [SECO (Example 14), secoisolariciresinol] |  | 35 ± 5 % of test | 9 ± 1 % of test | 100 % of test | 115 ± 10 | 115 ± 10 |

From US20100286255A1, “METHOD FOR EXTRACTING SECOISOLARICIRESINOL AND DIHYDROQUERCETIN FROM WOOD” (priority 2007, published 2010)
